We go through 23 molecules from patent publication US11919887B2, “Substituted tetrahydrofurans as modulators of sodium channels” (Vertex Pharmaceuticals Incorporated, priority 2019, dated 2024).

The structures appear in SMILES notation.

Sequence of human Nav 1.8 (Q9Y5Y9 whole entry, looked up, the tested form may be a part): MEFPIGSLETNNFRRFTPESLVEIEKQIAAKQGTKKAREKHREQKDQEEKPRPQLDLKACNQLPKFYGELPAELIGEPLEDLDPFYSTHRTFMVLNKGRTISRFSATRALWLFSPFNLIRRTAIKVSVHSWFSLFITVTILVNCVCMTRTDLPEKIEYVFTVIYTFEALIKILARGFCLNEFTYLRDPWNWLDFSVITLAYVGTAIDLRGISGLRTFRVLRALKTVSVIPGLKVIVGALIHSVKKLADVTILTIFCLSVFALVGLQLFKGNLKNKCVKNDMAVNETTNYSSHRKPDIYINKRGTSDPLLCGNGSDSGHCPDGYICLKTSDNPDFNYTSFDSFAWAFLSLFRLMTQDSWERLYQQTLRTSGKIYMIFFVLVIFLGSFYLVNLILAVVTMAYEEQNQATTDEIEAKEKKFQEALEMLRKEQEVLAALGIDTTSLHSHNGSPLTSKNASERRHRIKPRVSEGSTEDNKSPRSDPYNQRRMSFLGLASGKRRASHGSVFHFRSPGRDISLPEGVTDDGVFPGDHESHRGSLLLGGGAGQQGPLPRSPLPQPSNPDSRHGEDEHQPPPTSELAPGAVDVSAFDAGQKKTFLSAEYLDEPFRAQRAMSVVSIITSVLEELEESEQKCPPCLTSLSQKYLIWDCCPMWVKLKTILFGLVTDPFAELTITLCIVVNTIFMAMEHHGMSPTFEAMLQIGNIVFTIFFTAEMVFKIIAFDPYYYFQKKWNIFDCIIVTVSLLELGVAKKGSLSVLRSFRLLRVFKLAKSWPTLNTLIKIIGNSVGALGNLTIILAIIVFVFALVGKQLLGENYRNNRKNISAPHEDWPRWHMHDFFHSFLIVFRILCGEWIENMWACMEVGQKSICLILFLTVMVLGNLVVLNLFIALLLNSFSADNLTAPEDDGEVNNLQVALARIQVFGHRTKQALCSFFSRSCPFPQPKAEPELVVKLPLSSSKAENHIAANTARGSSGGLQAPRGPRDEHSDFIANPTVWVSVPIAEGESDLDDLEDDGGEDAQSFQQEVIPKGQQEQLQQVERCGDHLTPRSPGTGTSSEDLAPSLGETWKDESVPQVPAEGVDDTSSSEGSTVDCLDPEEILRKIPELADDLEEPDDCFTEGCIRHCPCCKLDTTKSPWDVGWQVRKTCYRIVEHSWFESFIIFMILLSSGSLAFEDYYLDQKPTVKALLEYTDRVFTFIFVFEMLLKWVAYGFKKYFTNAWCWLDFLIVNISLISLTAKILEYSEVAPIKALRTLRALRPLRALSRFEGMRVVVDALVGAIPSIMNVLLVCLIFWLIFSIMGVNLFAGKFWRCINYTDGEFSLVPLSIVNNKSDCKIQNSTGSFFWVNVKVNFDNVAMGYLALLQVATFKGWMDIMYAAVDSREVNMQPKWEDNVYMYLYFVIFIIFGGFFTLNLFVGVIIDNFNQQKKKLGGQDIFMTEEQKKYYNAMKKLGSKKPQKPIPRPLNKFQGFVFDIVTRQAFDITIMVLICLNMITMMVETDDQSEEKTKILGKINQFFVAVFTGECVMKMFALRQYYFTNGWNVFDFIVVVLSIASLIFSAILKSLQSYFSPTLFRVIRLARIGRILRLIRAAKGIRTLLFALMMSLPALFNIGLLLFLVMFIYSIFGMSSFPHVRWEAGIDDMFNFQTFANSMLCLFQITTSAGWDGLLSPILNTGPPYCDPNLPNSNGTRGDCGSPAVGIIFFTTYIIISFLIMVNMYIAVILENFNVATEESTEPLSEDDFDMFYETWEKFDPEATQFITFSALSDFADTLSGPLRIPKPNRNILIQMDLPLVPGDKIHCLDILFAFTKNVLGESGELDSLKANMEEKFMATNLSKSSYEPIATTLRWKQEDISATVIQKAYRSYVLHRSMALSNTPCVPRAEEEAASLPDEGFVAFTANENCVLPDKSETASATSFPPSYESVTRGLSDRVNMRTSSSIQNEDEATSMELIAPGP

The first assay has as its target human Nav 1.8 (Homo sapiens, UniProt Q9Y5Y9). The assay can be described thus: E-VIPR assay detecting and measuring Nav inhibition (HEK cells expressing truncated human Nav 1.8). It counts as cell-based. The note with it: in the Absence of Human Serum in the E-VIPR Assay; read-out: IC50. Put shortly:
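HEK cells expressing truncated human Nav1.8, transduced with KIR2.1 BacMam, were loaded with CC2-DMPE/DiSBAC6(3) FRET dyes and tested under electrical stimulation (E-VIPR). Compounds were run as 11-point 3-fold dilutions, top 300 nM final, 0.625% DMSO, with or without 25% human serum.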
A word on the IC50: it is the concentration that gives 50% inhibition. Regarding `C[C@H]1[C@@H](c2ccc(F)c(F)c2OC2CCC2)[C@H](C(=O)Nc2ccnc(C(N)=O)c2)O[C@@]1(C)C(F)(F)F` [Compound 147, 4-[[(2R,3S,4S,5R)-3-[2-(cyclobutoxy)-3,4-difluoro-phenyl]-4,5-dimethyl-5-(trifluoromethyl)tetrahydrofuran-2-carbonyl]amino]pyridine-2-carboxamide], the 50% inhibitory concentration (IC50) is less than 10 nM.
On the same count and under the same terms, to `COc1c([C@H]2[C@H](C(=O)Nc3cc(C(N)=O)ncc3F)O[C@@](C)(C(F)(F)F)[C@H]2C)ccc(F)c1F` [Compound 122, 4-[[(2R,3S,4S,5R)-3-(3,4-difluoro-2-methoxy-phenyl)-4,5-dimethyl-5-(trifluoromethyl)tetrahydrofuran-2-carbonyl]amino]-5-fluoro-pyridine-2-carboxamide] belongs less than 10 nM; to `COc1c([C@H]2[C@H](C(=O)Nc3cc(C(N)=O)ncc3C)O[C@@](C)(C(F)(F)F)[C@H]2C)ccc(F)c1F` [Compound 119, 4-[[(2R,3S,4S,5R)-3-(3,4-difluoro-2-methoxy-phenyl)-4,5-dimethyl-5-(trifluoromethyl)tetrahydrofuran-2-carbonyl]amino]-5-methyl-pyridine-2-carboxamide], less than 10 nM.
With `COc1c([C@H]2[C@H](C(=O)Nc3cccc(C(N)=O)n3)O[C@@](C)(C(F)(F)F)[C@H]2C)ccc(F)c1F` [Compound 114, 6-[[(2R,3S,4S,5R)-3-(3,4-difluoro-2-methoxy-phenyl)-4,5-dimethyl-5-(trifluoromethyl)tetrahydrofuran-2-carbonyl]amino]pyridine-2-carboxamide], the half-inhibitory concentration (IC50) was in the range of 10 to 100 nM.

Still in this assay, the particulars now being: in the Presence of Human Serum in the E-VIPR Assay.
On to `COc1c([C@H]2[C@H](C(=O)Nc3ccnc(C(N)=O)c3)O[C@@](C)(C(F)(F)F)[C@H]2C)ccc(F)c1F` [Compound 7, (2R,3S,4S,5R)-4-[[3-(3,4-difluoro-2-methoxy-phenyl)-4,5-dimethyl-5-(trifluoromethyl)tetrahydrofuran-2-carbonyl]amino]pyridine-2-carboxamide], for which the IC50 was less than 10 nM.

The assay is the same for the next values; noted with them: in the Presence of Human Serum in the E-VIPR Assay; read-out: IC50.
For `COc1nc(C(F)(F)F)ccc1[C@H]1[C@H](C(=O)Nc2ccnc(C(N)=O)c2)O[C@@](C)(C(F)(F)F)[C@H]1C` (stereo in doubt) [Compound 138, rel-(2R,3S,4S,5R)-4-[[3-[2-methoxy-6-(trifluoromethyl)-3-pyridyl]-4,5-dimethyl-5-(trifluoromethyl)tetrahydrofuran-2-carbonyl]amino]pyridine-2-carboxamide], the 50% inhibitory concentration (IC50) was in the range of 10 to 100 nM.
On the same count and under the same terms, to `COc1c([C@H]2C[C@@](C)(C(F)(F)F)O[C@@H]2C(=O)Nc2ccnc(C(N)=O)c2)ccc(F)c1F` (stereo in doubt) [Compound 4, rel-(2S,3R,5S)-4-[[3-(3,4-difluoro-2-methoxy-phenyl)-5-methyl-5-(trifluoromethyl)tetrahydrofuran-2-carbonyl]amino]pyridine-2-carboxamide] belongs more than 1000 nM.
The same measure, in the same setting: to `COc1c([C@@H]2[C@H](C)[C@H](C)O[C@H]2C(=O)Nc2ccnc(C(N)=O)c2)ccc(F)c1F` (stereo in doubt) [Compound 108, rel-(2R,3S,4S,5S)-4-[[3-(3,4-difluoro-2-methoxy-phenyl)-4,5-dimethyl-tetrahydrofuran-2-carbonyl]amino]pyridine-2-carboxamide] belongs 100 to 1000 nM; to `Cc1c(F)ccc([C@H]2[C@H](C(=O)Nc3ccnc(C(N)=O)c3)O[C@@](C)(C(F)(F)F)[C@H]2C)c1OC(F)F` (stereo in doubt) [Compound 17, rel-(2R,3S,4S,5R)-4-[[3-[2-(difluoromethoxy)-4-fluoro-3-methyl-phenyl]-4,5-dimethyl-5-(trifluoromethyl)tetrahydrofuran-2-carbonyl]amino]pyridine-2-carboxamide], less than 10 nM; to `COc1cc(F)ccc1[C@@H]1[C@@H](C(=O)Nc2ccnc(C(N)=O)c2)O[C@](C)(C(F)(F)F)[C@H]1C` (single isomer, unassigned) [Compound 38], more than 1000 nM.
Still for that read-out and setting: with `COc1c([C@@H]2C[C@](C)(C(C)(F)F)O[C@H]2C(=O)Nc2ccnc(C(N)=O)c2)ccc(F)c1F` (single isomer, unassigned) [Compound 86] the figure was more than 1000 nM; with `CC[C@H]1[C@@H](c2ccc(F)c(F)c2OC)[C@H](C(=O)Nc2ccnc(C(N)=O)c2)O[C@@]1(C)C(F)(F)F` (single isomer, unassigned) [Compound 93], less than 10 nM.
As to `CNC(=O)c1cc(NC(=O)[C@@H]2O[C@@](C)(C(F)(F)F)[C@@H](C)[C@H]2c2ccc(F)cc2OC(F)F)ccn1` (single isomer, unassigned) [Compound 30], the concentration for half-maximal inhibition (IC50) was 100 to 1000 nM.
Same read-out and setting: with `CC[C@]1(C(F)(F)F)C[C@@H](c2ccc(F)c(F)c2OC)[C@H](C(=O)Nc2ccnc(C(N)=O)c2)O1` (stereo in doubt) [Compound 64, rel-(2R,3S,5R)-4-[[3-(3,4-difluoro-2-methoxy-phenyl)-5-ethyl-5-(trifluoromethyl)tetrahydrofuran-2-carbonyl]amino]pyridine-2-carboxamide] the figure was 10 to 100 nM.
Still for that read-out and setting: to `COc1c([C@@H]2[C@@H](C(=O)Nc3ccnc(C(N)=O)c3)O[C@@](C)(C(F)F)[C@H]2C)ccc(F)c1F` (stereo in doubt) [Compound 97, rel-(2S,3R,4S,5R)-4-[[3-(3,4-difluoro-2-methoxy-phenyl)-5-(difluoromethyl)-4,5-dimethyl-tetrahydrofuran-2-carbonyl]amino]pyridine-2-carboxamide] belongs more than 1000 nM; to `CNC(=O)c1cc(NC(=O)[C@@H]2O[C@](C)(C(F)(F)F)C[C@H]2c2ccc(F)c(Cl)c2OC)ccn1` (single isomer, unassigned) [Compound 59], more than 1000 nM; to `COc1cc(F)ccc1[C@H]1C[C@@](C)(C(F)(F)F)O[C@H]1C(=O)Nc1ccnc(C(N)=O)c1` (single isomer, unassigned) [Compound 69], more than 1000 nM.
The same measure, in the same setting: with `COc1c([C@@H]2C[C@](C)(C(F)(F)F)O[C@H]2C(=O)Nc2ccnc(C(N)=O)c2)ccc(F)c1F` (stereo in doubt) [Compound 5, rel-(2R,3S,5R)-4-[[3-(3,4-difluoro-2-methoxy-phenyl)-5-methyl-5-(trifluoromethyl)tetrahydrofuran-2-carbonyl]amino]pyridine-2-carboxamide] the figure was 10 to 100 nM; with `COc1c([C@H]2C[C@@](C)(C(F)(F)F)O[C@@H]2C(=O)Nc2ccnc(C(N)=O)c2)ccc(F)c1C` (single isomer, unassigned) [Compound 71], more than 1000 nM.
With `COc1c([C@H]2[C@H](C(=O)Nc3ccnc(C(N)=O)c3)O[C@@](C)(C(F)(F)F)[C@H]2C)ccc(F)c1C(F)F` (single isomer, unassigned) [Compound 44], the IC50 was less than 10 nM.
On the same count and under the same terms, with `COc1c([C@@H]2C[C@@](C)(CC(F)(F)F)O[C@H]2C(=O)Nc2ccnc(C(N)=O)c2)ccc(F)c1F` (single isomer, unassigned) [Compound 80] the figure was more than 1000 nM.
The same measure, in the same setting: with `CC[C@@]1(C(F)(F)F)C[C@H](c2ccc(F)c(F)c2OC)[C@@H](C(=O)Nc2ccnc(C(N)=O)c2)O1` (stereo in doubt) [Compound 63, rel-(2S,3R,5S)-4-[[3-(3,4-difluoro-2-methoxy-phenyl)-5-ethyl-5-(trifluoromethyl)tetrahydrofuran-2-carbonyl]amino]pyridine-2-carboxamide] the figure was more than 1000 nM; with `COc1c([C@@H]2C[C@@](C)(C(C)(F)F)O[C@H]2C(=O)Nc2ccnc(C(N)=O)c2)ccc(F)c1F` (single isomer, unassigned) [Compound 84], more than 1000 nM.
